Data published in patent US10265333B2, “Lipid nanomaterial containing lysophosphatidylcholine or derivative thereof and method for preparing same” (priority 2013, dated 2019).

Legend:
[1] = tested on: heparinized rat (SD rat) bloods; test: Hemolysis in heparinized rat blood (OD 570 nm of supernatant); format: cell-based
Experimental: (§1) In order to evaluate the degree of hemolysis and erythrocyte aggregation induced by LPC-containing lipid nanoparticles (LPC-F; 18:0 LPC concentration: 10 mg/ml) prepared in example 1, 200 μl of saline, distilled water, six different concentration solutions (stock, 2, 4, 8, 16 and 32-fold diluted solutions) of LPC-F, or non-formulated lysophosphatidylcholine (LPC-API) 10 mg/ml concentrated saline solution were directly added into 1 ml of collected heparinized rat (SD rat) bloods, and then, incubated at 37° C. in shaking incubator at 100 rpm for 3 hrs. The prepared LPC-F was fold-diluted with saline to prepare six different concentrations of LPC-F. LPC-API 10 mg/ml concentrated solution was prepared through dispersion in saline, and then fold-diluted with saline to prepare six different concentrations of LPC-API Five independent experiments were repeatedly conducted. If possible, blood taken from same rats was used in each independent experiment. After the incubation in shaking incubator at 100 rpm, the formed erythrocyte aggregation was semi-quantitatively evaluated, and the OD values were calculated for the supernatant in each tube, which was prepared by centrifuging the incubated samples at 12,500 rpm for 10 minutes, and then reading the OD at 570 nm, respectively. Hemolysis was calculated by equation 1 below. The hemolytic reaction was considered positive if the hemolytic percentage was greater than 5%. Hemolytic percentage (%)=(OD sample−OD negative/(OD positive−OD negative)×100 [Equation 1]
Where negative=saline, and positive=distilled water
(§2) OD values and semiquantative erythrocyte aggregation scores were expressed by mean±standard deviation of five independent experiments. Multiple comparison tests for different dose groups were conducted. Variance homogeneity was examined using the Levene test (Levene A, Clin Otalary, 1981; 6:145-51). […] Statistical analyses were conducted using SPSS (Release 14.0 K, SPSS Inc., USA; Ludbrook, Clin Exp Pharmacol Physiol, 1997; 24:294-6). A p-value p<0.05 was considered statistically significant.

[2] = tested on: hair-clipped dorsal back skins of mice; test: Local irritation test in mice after single subcutaneous administration; format: in vivo; details: for Clinical signs: Normal appearance (% of mice) / Clinical signs: Normal appearance (mice/group) / Clinical signs: Skin ulcerative lesions (mice/group): male ICR mice, 14 days
Experimental: In order to evaluate the local irritation of the LPC-containing lipid nanoparticle formulation (LPC-F; 18:0 LPC concentration: 10 mg/ml) prepared in example 1, 20, 10, and 5 ml/kg (18:0 LPC 200, 100, and 50 mg/kg) were single subcutaneously administered to hair-clipped dorsal back skins of mice. Based on the “Testing Guidelines for Safety Evaluation of Drugs” [2009] in Notification No. 2009-116 issued by the Korea Food and Drug Administration, the changes in mortality, body weight, clinical signs, gross and histopathological findings around injection sites during 14 days were compared between the LPC-containing lipid nanoparticle formulations and equal concentrations of lysophosphatidylcholine saline suspension (LPC-API) 10 mg/ml treated group. In the present test, saline was used as negative control, and the highest dosage 200 mg/kg was set based on the maximum permissible dosage 20 ml/kg in rodents (Flecknell, 1996; KFDA Guidelines, Notification 2009-116, 2009; OECD Guidelines, #423, 2001). The dosages were set to 10 and 5 ml/kg in middle and lowest dosage groups, respectively.
Animal male ICR mice were 6-wk old upon receipt (body weight ranged in 30-32 g), and were 10-wk old after acclimatization for 28 days (body weight ranged in 36.4-49.0 g). The animals were distributed into the following groups for the test.
as §2, with “All data” for “OD values and semiquantative erythrocyte aggregation scores”, “as” for “by”, “deviation (SD)” for “deviation”, “mice.” for “independent experiments.”, “dosage” for “dose”, “<0.05” for “p<0.05”

[3] = tested on: heparinized rat (SD rat) bloods; test: Erythrocyte aggregation in heparinized rat blood (semiquantitative score); format: cell-based; details: all six different concentrations (stock to 32-fold diluted)
Experimental: as §1, with “If possible, blood taken from same rats was used in each independent experiment.” left out, “The hemolytic reaction was considered positive if the hemolytic percentage was greater than 5%. Hemolytic percentage (%)=(OD sample−OD negative/(OD positive−OD negative)×100 [Equation 1]” left out
Erythrocyte aggregation was evaluated based on semiquantative scores as follows: […]

[4] = single s.c. 5 ml/kg (LPC 50 mg/kg)
[5] = single s.c. 10 ml/kg (LPC 100 mg/kg)
[6] = single s.c. 20 ml/kg (LPC 200 mg/kg)

What does the source list for lysophosphatidylcholine [LPC-API]?
Hemolytic percentage (%) ([1]; 2-fold diluted solution, 200 μl in 1 ml rat blood, 37° C., 3 hrs): 148.65±15.01%; Hemolytic percentage (%) ([1]; 4-fold diluted solution, 200 μl in 1 ml rat blood, 37° C., 3 hrs): 129.70±7.23%; Hemolytic percentage (%) ([1]; 8-fold diluted solution, 200 μl in 1 ml rat blood, 37° C., 3 hrs): 117.67±5.97%; Hemolytic percentage (%) ([1]; 16-fold diluted solution, 200 μl in 1 ml rat blood, 37° C., 3 hrs): 78.74±3.30%; Hemolytic percentage (%) ([1]; 32-fold diluted solution, 200 μl in 1 ml rat blood, 37° C., 3 hrs): 26.86±6.40%; Hemolytic percentage (%) ([1]; stock (LPC 10 mg/ml), 200 μl in 1 ml rat blood, 37° C., 3 hrs): 157.68±10.44%; Hemolytic percentage (%) ([1]; throughout all different concentrations including the lowest 32-fold diluted solutions): greater than 5%; Degree of ulcerative skin lesions around injection sites ([2]; 200, 100, 50 mg/kg treated groups, from 48 hrs after end of treatment): slight [1+] or moderate [2+]; Histopathology: skin ulcerative lesions (% of mice) ([2]; single s.c. 50 mg/kg): 60%; Necropsy: skin ulcerative lesions around injection sites (% of mice) ([2]; single s.c. 50 mg/kg): 60%; Histopathology: skin ulcerative lesions (% of mice) ([2]; single s.c. 100 mg/kg): 60%; Necropsy: skin ulcerative lesions around injection sites (% of mice) ([2]; single s.c. 100 mg/kg): 60%; Histopathology: skin ulcerative lesions (% of mice) ([2]; single s.c. 200 mg/kg): 100%; Necropsy: skin ulcerative lesions around injection sites (% of mice) ([2]; single s.c. 200 mg/kg): 100%; Histopathology, skins around injection sites: Normal (mice/group) [2, 4]: 2/5; Histopathology: hUL degree 1+ Slight (mice/group) [2, 4]: 3/5; Histopathology: hUL degree 2+ Moderate (mice/group) [2, 4]: 0/5; Histopathology: hUL degree 3+ Severe (mice/group) [2, 4]: 0/5; Histopathology: hUL, histopathological skin ulcerative lesions (mice/group) [2, 4]: 3/5; Necropsy, skins around injection sites: Normal (mice/group) [2, 4]: 2/5; Necropsy: gUL degree 1+ Slight (mice/group) [2, 4]: 3/5; Necropsy: gUL degree 2+ Moderate (mice/group) [2, 4]: 0/5; Necropsy: gUL degree 3+ Severe (mice/group) [2, 4]: 0/5; Necropsy: gUL, gross skin ulcerative lesions (mice/group) [2, 4]: 3/5; Clinical signs: Normal appearance (% of mice) [2, 4]: (40%); Clinical signs: Normal appearance (mice/group) [2, 4]: 2/5; Clinical signs: Skin ulcerative lesions (mice/group) [2, 4]: 3/5; Histopathology, skins around injection sites: Normal (mice/group) [2, 5]: 2/5; Histopathology: hUL degree 1+ Slight (mice/group) [2, 5]: 3/5; Histopathology: hUL degree 2+ Moderate (mice/group) [2, 5]: 0/5; Histopathology: hUL degree 3+ Severe (mice/group) [2, 5]: 0/5; Histopathology: hUL, histopathological skin ulcerative lesions (mice/group) [2, 5]: 3/5; Necropsy, skins around injection sites: Normal (mice/group) [2, 5]: 2/5; Necropsy: gUL degree 1+ Slight (mice/group) [2, 5]: 3/5; Necropsy: gUL degree 2+ Moderate (mice/group) [2, 5]: 0/5; Necropsy: gUL degree 3+ Severe (mice/group) [2, 5]: 0/5; Necropsy: gUL, gross skin ulcerative lesions (mice/group) [2, 5]: 3/5; Clinical signs: Normal appearance (% of mice) [2, 5]: (40%); Clinical signs: Normal appearance (mice/group) [2, 5]: 2/5; Clinical signs: Skin ulcerative lesions (mice/group) [2, 5]: 3/5; Histopathology, skins around injection sites: Normal (mice/group) [2, 6]: 0/5; Histopathology: hUL degree 1+ Slight (mice/group) [2, 6]: 3/5; Histopathology: hUL degree 2+ Moderate (mice/group) [2, 6]: 1/5; Histopathology: hUL degree 3+ Severe (mice/group) [2, 6]: 1/5; Histopathology: hUL, histopathological skin ulcerative lesions (mice/group) [2, 6]: 5/5; Necropsy, skins around injection sites: Normal (mice/group) [2, 6]: 0/5; Necropsy: gUL degree 1+ Slight (mice/group) [2, 6]: 3/5; Necropsy: gUL degree 2+ Moderate (mice/group) [2, 6]: 1/5; Necropsy: gUL degree 3+ Severe (mice/group) [2, 6]: 1/5; Necropsy: gUL, gross skin ulcerative lesions (mice/group) [2, 6]: 5/5; Clinical signs: Normal appearance (% of mice) [2, 6]: (0%); Clinical signs: Normal appearance (mice/group) [2, 6]: 0/5; Clinical signs: Skin ulcerative lesions (mice/group) [2, 6]: 5/5; Skin findings around injection sites (conclusion) ([2]; single subcutaneous treatment, compared with negative vehicle control): severe skin ulcerative lesions; Erythrocyte aggregation scores as compared with non-treated or negative saline controls [3]: significant increases
